Test results published in patent publication US10590121B2, “Kinase inhibitors and methods for making and using” (Rigel Pharmaceuticals, Inc., priority 2017, dated 2020).

Experiments:
[1] = tested on: LPS induced IL-23 (p19/p40) in DC cells differentiated from human PBMC; test: IL23-p19 ELISA, dendritic cells (DC differentiated from human PBMC), IFNγ primed, LPS stimulated; assay type: cell-based; details: human PBMC-derived dendritic cells, 1 μg/ml LPS, 18 hours, 10 pt
Procedure: Compound Screening Using DC Cells
1. Differentiation of PBMC's to DC Cells:
Human PBMC cells (400 million) obtained from the vendor were transferred into a T-175 flask containing 15 ml RPMI media (10% FBS) and incubate for 2 hours at 37° C. After 2 hours, the media including floating cells was aspirated out carefully and 12 ml of fresh RPMI media (10% FBS) containing GMCSF (100 ng/ml) and IL4 (20 ng/ml) was added, and the flask was kept in a 37° C. incubator for 7 days.
After 3 days, fresh GMCSF (100 ng/ml) and IL4 (20 ng/ml) were added to the flask and the incubation continued. After 7 days, the fully differentiated cells were harvested by spinning down (1200 rpm/5 min) and aspirating the media. The cells were suspended in fresh RPMI media (10% FBS) containing 50 ng/ml IFNγ (1000 U/ml) and then plated (50K/well in 100 μl) onto a white clear bottom 96 well plate and left in a 37° C. incubator for 24 hours.
2. Addition of Compounds:
After 24 hours incubation, 100 μl of RPMI media was added containing 2× concentrated test compound per well to the above cell-culture media (final concentration becomes 1×) and the plates were pre-incubated for 1 hour at 37° C. before stimulating with LPS.
After 1 hour compound pre-incubation, 10 μl per well of 20× concentrated LPS solution in RPMI media was added to give a final concentration of 1 μg/ml. The mixture was shaken and incubated the plates at 37° C. for an additional 18 hours.
155 μl of the supernatant was harvested from each well carefully (without the tip touching the bottom of the well) and to the remaining 50 μl/well of the cell culture plate was added 50 μl of Cell Titer Glo reagent. The mixture was incubated for 1-2 minutes on a shaker and the plate was read for luminescence intensity to determine the compound cytotoxicity. The cell culture supernatant collected above was used to carry out IL23 ELISA (65 μl-Supernatant) and IL10 ELISA (90 μl-Supernatant) as described below.
Human IL-23 (p19/p40) ELISA Protocol (e-Biosciences)
To 10.5 ml PBS add 50 μl of anti-IL23 (p19) was added capture antibody (2.5 μg/ml). The mixture was mixed well and 100 μl of the coating solution was added to each well of the 96 well white plates from Pierce. The wells were covered and incubated overnight at 4° C.
The anti-IL23 (p19)-antibody-coated plates were washed 2× using TBST (use plate washer) and blocked using 200 μl of 0.5% Casein for 1.5-2 hours at room temperature with shaking.
The plates were washed 2× using TBST and the supernatant was transferred (65 μl/well) to the above pre-blocked/IL23 (p19)-antibody-coated 96 well plate, and incubated at room temperature for 1.5 hours with shaking.
The plates were washed 4× using TBST (plate washer) and 100 μl/well detection antibody solution prepared from 2 μl of biotin labeled anti-IL-12 (p40/p70) antibody in 11 ml 1% BSA/PBS solution (1-5000 dilution) was added. The plates were incubated for 1 hour with shaking at room temperature.
Again, the plates were washed 4× with TBST and 100 μl of HRP labeled Streptavidin (R&D Systems) solution (10 μl/10 ml 1% BSA solution) was added, and the plates were incubated at room temperature for another 45 minutes with shaking.
After 45 minutes, the plates were washed with TBST 4× and 100 ul/well Super Signal ELISA Pico Chemiluminescent Substrate from Pierce (3.5 ml A+3.5 ml B+3.5 ml MQ water) was added. The plates were shaken for 1-2 minutes then read on a plate reader.

[2] = tested on: LPS induced IL23p19 in THP-1 cells; test: LPS Induced IL23p19 in THP-1 Cells (with IFNγ Primed) Assay; assay type: cell-based; details: Homo sapiens; THP-1 cells primed with IFNγ 50 ng/mL, 1 μg/mL LPS, 18 hours, 10 pt; read-out: IL23-p19 ELISA, THP1-IFNy, LPS, 10 pt EC50
Source text: LPS Induced IL23p19 in THP-1 Cells (with IFNγ Primed) Assay
THP-1 Cells (ATCC, Cat # TIB-202), Dimethyl Sulfoxide (DMSO) (Sigma-Aldrich, Cat # D2650), RPMI 1640 (Cellgro, Cat #10-040-CM), Fetal Bovine Serum (Sigma, Cat # F4135), Albumin From Bovine Serum (BSA) (Sigma-Aldrich, Cat # A7906), LPS (Serotype K-235, Sigma, Product Number L 2143), IFNγ (Peprotech, Cat #300-02), Capture antibody: Human IL-23p19 ELISA (e-Bioscience, Cat. #14-7238-85), Detection antibody: Primary Mouse Biotinylated anti-human IL-12 (p40/p70) (e-Bioscience, Cat. #13-7129-85), Secondary HRP-conjugated Streptavidin (R&D Systems, Cat # DY998), 1×PBST Washing Buffer (PBS-Tween tablet) (VWR International, Cat #80058-558), ELISA Blocking Buffer (PBS with 1% BSA), ELISA Dilution Buffer (PBS with 1% BSA), 384 Well Flat-Bottom, MaxiSorp Black Immuno Plates (Thermo Scientific, Cat #12-565-346), 384 Well Flat-Bottom, White Tissue Culture Plates (Thermo Scientific, Cat #12-565-343), Super Signal ELISA Pico Chemiluminescent Substrate (Thermo Scientific, Cat #37070), Cell Titer Glo reagent (Promega, Cat # G7573), Positive control, IKK2VI inhibitor (Calbiochem, Cat #401483), AquaMax 4000 plate washer (Molecular Devices), Luminometer, Wallac Victor2 1420 Multilabel Counter.
On day 1, 50K/well THP-1 cells were seeded and primed with IFNγ (50 ng/mL) in 384-well plates for about 18 hours in RPMI media with 10% FBS. On day 2, the compound was serially diluted in DMSO from 5 mM in 3-fold dilutions, and then diluted 1:125 in RPMI media with 10% FBS. 50 μL/well 2× compound was added to 50 μL/well THP-1 cells (with IFNγ primed) in duplicate in 384 well tissue culture plates. The cells were pre-incubated with compound for 1 hour at 37° C., 5% CO2 before addition of 10 μL/well 11×LPS to give a final concentration of 1 μg/mL LPS. Day 3, after stimulation for 18 hours at 37° C., 5% CO2, the assay plate was centrifuged and 70 μL/well supernatant was harvested. IL-23p19 protein in 70 μL/well of supernatant was measured by sandwich ELISA, and 25 μl/well Cell Titer Glo reagent was added to the remaining cells to measure compound toxicity.
Human IL-23p19 Sandwich ELISA:
Maxisorp immuno ELISA plates were pre-coated with 25 μL/well of anti-IL-23p19 capture antibody (2.5 ug/mL) in PBS overnight at room temperature. After washing with 1×PBST, the plates were blocked using 100 μL/well of 1% BSA in PBS for 2 hours at room temperature. The plates were washed three times with 1×PBST and 70 μL/well supernatant were added. The plates were incubated at room temperature for 2 hours with shaking and washed three times with 1×PBST. 25 μL/well of biotin labeled anti-IL-12 (p40/p70) detection antibody (100 ng/mL) in PBS with 1% BSA was added and the plates were incubated at room temperature for 2 hours with shaking. After washing three times with 1×PBST, 25 μL/well of streptavidin-HRP (1:200) in PBS with 1% BSA was added and the plates were incubated at room temperature for 20 minutes with shaking. The plates were washed three times with 1×PBST and 25 μL/well of Super Signal ELISA Pico Chemiluminescent Substrate were added. The plates were read with a luminometer, and the chemiluminescence values were entered into Athena (Rigel) for curve fitting, EC50 calculation, and database storage.

SMILES	EC50 [2]	EC50 [1]
O=C(Nc1ccc(C(=O)N2CCOCC2)cc1N1CCCCC1)c1ccc(-c2cn[nH]c2)o1 [I-46, N-(4-(morpholine-4-carbonyl)-2-(piperidin-1-yl)phenyl)-5-(1H-pyrazol-4-yl)furan-2-carboxamide]	1360 nM	2660 nM
CN1CCN(c2ccc(NC(=O)c3csc(-c4cn[nH]c4)n3)c(N3CCCCC3)c2)CC1 [I-3, N-(4-(4-methylpiperazin-1-yl)-2-(piperidin-1-yl)phenyl)-2-(1H-pyrazol-4-yl)thiazole-4-carboxamide]	25.9 nM	71.2 nM
O=C(Nc1ccc(CC(=O)N2CCOCC2)cc1N1CCCCC1)c1ccc(-c2cn[nH]c2)o1 [I-52, N-(4-(2-morpholino-2-oxoethyl)-2-(piperidin-1-yl)phenyl)-5-(1H-pyrazol-4-yl)furan-2-carboxamide]	1060 nM	3170 nM
CN1CCN(c2ccc(NC(=O)c3cccc(-c4cn[nH]c4)n3)c(N3CCC(F)CC3)c2)CC1 [I-7, N-(2-(4-fluoropiperidin-1-yl)-4-(4-methylpiperazin-1-yl)phenyl)-6-(1H-pyrazol-4-yl)picolinamide]	880 nM	689 nM
O=C(Nc1cc(CC(=O)N2CCOCC2)ccc1N1CCCCC1)c1csc(-c2cn[nH]c2)n1 [I-65, N-(5-(2-morpholino-2-oxoethyl)-2-(piperidin-1-yl)phenyl)-2-(1H-pyrazol-4-yl)thiazole-4-carboxamide]	195 nM	124 nM
O=C(Nc1ccc(N2CCOCC2)cc1N1CCCC1)c1ccc(-c2cn[nH]c2)o1 [I-23, N-(4-morpholino-2-(pyrrolidin-1-yl)phenyl)-5-(1H-pyrazol-4-yl)furan-2-carboxamide]	2860 nM	2270 nM
CN1CCN(c2ccc(NC(=O)c3ccc(-c4cn[nH]c4)o3)c(N3CCCCC3)c2)CC1 [I-2, N-(4-(4-methylpiperazin-1-yl)-2-(piperidin-1-yl)phenyl)-5-(1H-pyrazol-4-yl)furan-2-carboxamide]	36.8 nM	120 nM
O=C(Nc1ccc(N2CCOCC2)cc1N1CCC(F)(F)CC1)c1ccc(-c2cn[nH]c2)o1 [I-20, N-(2-(4,4-difluoropiperidin-1-yl)-4-morpholinophenyl)-5-(1H-pyrazol-4-yl)furan-2-carboxamide]	2330 nM	1120 nM

Continued, in another order:

EC50 [2]	SMILES	EC50 [1]
314 nM	O=C(Nc1ccc(N2CCOCC2)cc1N1CCC(F)CC1)c1cccc(-c2cn[nH]c2)n1 [I-4, N-(2-(4-fluoropiperidin-1-yl)-4-morpholinophenyl)-6-(1H-pyrazol-4-yl)picolinamide]	3600 nM
150 nM	O=C(Nc1cc(CC(=O)N2CCOCC2)ccc1N1CCCCC1)c1cccc(-c2cn[nH]c2)n1 [I-63, N-(5-(2-morpholino-2-oxoethyl)-2-(piperidin-1-yl)phenyl)-6-(1H-pyrazol-4-yl)picolinamide]	160 nM
117 nM	O=C(Nc1ccc(C(=O)N2CCOCC2)cc1N1CCCCC1)c1cccc(-c2cn[nH]c2)n1 [I-45, N-(4-(morpholine-4-carbonyl)-2-(piperidin-1-yl)phenyl)-6-(1H-pyrazol-4-yl)picolinamide]	84 nM
307 nM	O=C(Nc1cc(CCN2CCOCC2)ccc1N1CCCCC1)c1ccc(-c2cn[nH]c2)o1 [I-67, N-(5-(2-morpholinoethyl)-2-(piperidin-1-yl)phenyl)-5-(1H-pyrazol-4-yl)furan-2-carboxamide]	480 nM
177 nM	O=C(Nc1ccc(CN2CCOCC2)cc1N1CCCCC1)c1cccc(-c2cn[nH]c2)n1 [I-48, N-(4-(morpholinomethyl)-2-(piperidin-1-yl)phenyl)-6-(1H-pyrazol-4-yl)picolinamide]	468 nM
306 nM	O=C(Nc1cc(CN2CCOCC2)ccc1N1CCCCC1)c1csc(-c2cn[nH]c2)n1 [I-62, N-(5-(morpholinomethyl)-2-(piperidin-1-yl)phenyl)-2-(1H-pyrazol-4-yl)thiazole-4-carboxamide]	311 nM
3230 nM	O=C(Nc1ccc(N2CCOCC2)cc1N1CCCC1)c1cccc(-c2cn[nH]c2)n1 [I-22, N-(4-morpholino-2-(pyrrolidin-1-yl)phenyl)-6-(1H-pyrazol-4-yl)picolinamide]	16400 nM
1440 nM	CN(CCN1CCOCC1)c1ccc(NC(=O)c2ccc(-c3cn[nH]c3)o2)c(N2CCCCC2)c1 [I-70, N-(4-(methyl(2-morpholinoethyl)amino)-2-(piperidin-1-yl)phenyl)-5-(1H-pyrazol-4-yl)furan-2-carboxamide]	1920 nM
303 nM	O=C(Nc1ccc(N2CCOCC2)cc1N1CCC(O)CC1)c1cccc(-c2cn[nH]c2)n1 [I-10, N-(2-(4-hydroxypiperidin-1-yl)-4-morpholinophenyl)-6-(1H-pyrazol-4-yl)picolinamide]	1740 nM
